Entries after “also recorded” stand apart in the source; their conditions may differ. Numbered stars: 1 amine (or outer) side, 2 acyl side, 3 side chain; on linkers, the order of the positions; unused ones are H or OH. Square brackets hold non-standard residues; d marks the D form. Side chains are listed from the residue outwards. Peptide text beside a SMILES is read from it. * marks the point of attachment. Isobutyryl(2-(3-CN-5-F-Ph)) = CC(C)(C(=O)*)c1cc(F)cc(C#N)c1; C20 diacid = O=C(O)CCCCCCCCCCCCCCCCCCC(=O)*; γGlu = O=C(O)[C@H](CCC(=O)[*:2])N[*:1]; AEEA = NCCOCCOCC(=O)O; Aib = CC(C)(N)C(=O)O; βAla = NCCC(=O)O
Test: Phase 1 MD Cohorts 11 and 12: safety, tolerability, disposition
Type: in vivo, human
Method: The primary objective of this study is to determine the safety and tolerability of CT-388 in participants with and without type 2 diabetes mellitus (T2DM) when administered once weekly over 12 consecutive weeks for Cohorts 11 and 14 with titrated dosing (and additionally, up to 24 weeks for Cohorts 12 and 13).
The cohorts in the MD QW study are as follows. • Cohort 11: Once weekly dose administered SC in the abdomen across 12 consecutive weeks with CT-388 or matched placebo doses of 5.0 mg administered for the first 3 weeks and then titrated to 8.0 mg for the duration of the treatment period. If a participant(s) experiences moderate to severe tolerability issues after the third dose of 5 mg, the same 5 mg dose may be continued for up to an additional 2 weeks, i.e., up-titration to 8 mg may be attempted after the fourth or fifth 5 mg dose. If participant(s) still unable to tolerate 8 mg by Day 36, then that participant(s) may continue at 5 mg for the remaining duration of the treatment period. • Cohorts 12 and 13: Once weekly dose administered SC in the abdomen titrated across 12 consecutive weeks with CT-388 or matched placebo doses of: • 5.0 mg at Day 1 and Day 8 • 8.0 mg at Day 15 and Day 22 • 12.0 mg (or 8.0 mg based on tolerability) at Day 29 and Day 36 • 17.0 mg (or 12.0 mg based on tolerability) at Day 43 and Day 50 • 22.0 mg (or 12.0 mg or 17.0 mg based on tolerability) at Day 57. • If at 22 mg on Day 57, continue that dose for the duration of the treatment period. • If at 12 mg or 17 mg on Day 57, titration to the corresponding next higher dose level may be attempted on a weekly basis based on the individual's tolerability (e.g., if on Day 57, 12 mg dose was administered and tolerated, on Day 64, dose of 17 mg may be attempted). • If not able to tolerate, continue at the previously tolerated dose level until the following week (e.g., to Day 71), at which point another attempt can be made to the next higher dose level. • Attempts to the next higher dose level can continue to be made until Day 78. The dose level achieved at Day 78 should be maintained for an additional 12 weeks of weekly dosing in the extension period, resulting in a cumulative of 24 weeks of total doses for participants in Cohorts 12 and 13. At any time during the extension period, if the maintenance dose is not tolerated, then that dose may be either lowered by one corresponding dose level (e.g., if at 22 mg, decrease to 17 mg; if at 17 mg decrease to 12 mg), and/or the dosing may be withheld for up to 2 weeks. Following this temporary dose adjustment/withholding period, attempt to titrate back up to the previous (higher) dose level should be made. […]

[1] = Cohort 12, planned target 22 mg

In the case of `CC[C@H](C)[C@H](NC(=O)[C@H](CC(C)C)NC(=O)[C@H](Cc1c[nH]c2ccccc12)NC(=O)[C@H](CCC(N)=O)NC(=O)[C@@H](NC(=O)[C@H](Cc1ccccc1)NC(=O)[C@H](C)NC(=O)[C@H](CCCCNC(=O)COCCOCCNC(=O)COCCOCCNC(=O)CC[C@H](NC(=O)CCCCCCCCCCCCCCCCCCC(=O)O)C(=O)O)NC(=O)[C@H](CCC(N)=O)NC(=O)[C@H](C)NC(=O)[C@@H](NC(=O)[C@H](CCCCN)NC(=O)[C@H](CC(=O)O)NC(=O)[C@H](CC(C)C)NC(=O)C(C)(C)NC(=O)[C@@H](NC(=O)[C@H](CO)NC(=O)[C@H](Cc1ccc(O)cc1)NC(=O)[C@H](CC(=O)O)NC(=O)[C@H](CO)NC(=O)[C@@H](NC(=O)[C@H](Cc1ccccc1)NC(=O)[C@@H](NC(=O)CNC(=O)[C@H](CCC(=O)O)NC(=O)CCNC(=O)C(C)(C)c1cc(F)cc(C#N)c1)[C@@H](C)O)[C@@H](C)O)[C@@H](C)CC)[C@@H](C)CC)C(C)C)C(=O)N[C@@H](C)C(=O)NCC(=O)NCC(=O)N1CCC[C@H]1C(=O)N[C@@H](CO)C(=O)N[C@@H](CO)C(=O)NCC(=O)N[C@@H](C)C(=O)N1CCC[C@H]1C(=O)N1CCC[C@H]1C(=O)N1CCC[C@H]1C(=O)N[C@@H](CO)C(N)=O` [CT-388] ({Isobutyryl(2-(3-CN-5-F-Ph))-βAla}-EGTFTSDYSI[Aib]LDKIAQK([AEEA-AEEA-γGlu-C20 diacid])AFVQWLIAGGPSSGAPPPS-NH2), the “SAEs or severe treatment related GI-related AEs” value (CT-388 participants, up to 24 weeks) is reported as “No SAEs or severe treatment related GI-related AEs; also recorded: No SAEs or severe treatment related GI-related TEAE”, the “patients dosed per planned path and completed treatment on 22 mg” value [1] is reported as 75% and the “patients with dose down-titration who completed treatment on 12 mg” value [1] is reported as 25%. For the same molecule, the safety and tolerability (up to 24 weeks of treatment, up to 22 mg SC QW) was “generally safe and well-tolerated”.

Reference: patent US20240390464A1, “Treatment of Adults With Overweight or Obesity With or Without Weight-Related Comorbidities” (Carmot Therapeutics Inc., priority 2023, published 2024)
